Measured values published in ChEMBL document CHEMBL1158916, “2-O-alpha-D-galactopyranosyl glycerol hexaacetate from Ruellia brittoniana” (J Nat Prod, 1990).

Test system: Rattus norvegicus
Test: Toxicity in anesthetized rat assessed as increase in mean arterial pressure at 100 ug/kg
Format: organism-based, Artery
Conditions: in vivo, 0.1 mg/kg

CC(=O)OCC(COC(C)=O)O[C@H]1O[C@H](COC(C)=O)[C@H](OC(C)=O)[C@H](OC(C)=O)[C@H]1OC(C)=O
Activity: Toxic
